Values quoted from earlier work in article PMC12284294 (iScience, 2025).

Key:
FPR2 = settings: cited from earlier work
Excerpt: (§1) Besides viral peptides that interact with FPR1 and FPR2, we identified a large novel group of FPR3 specific viral activators - a receptor for which very few biological relevant activators have been described yet,[53]^,[72] leaving much room for speculations about its major biological function.[1]^,[2] In contrast to FPR1 and FPR2, for which a large panel of receptor subtype-selective ligands have been described, only two biological relevant agonists with a known preference for FPR3 were identified. One is the mitochondrial-derived neuroprotective peptide Humanin[51]^,[52]^,[73] that binds to F ...

FPR3 = settings: cited from earlier work
Excerpt: as §1

F2L: acetylated 21mer N-terminal cleavage product of heme-binding-protein-1
concentrations that activate FPR2 (FPR2): low micromolar
concentrations that activate FPR3 (FPR3): low nanomolar
